Assay results reported in ChEMBL document CHEMBL1201861, “Genomics of Drug Sensitity in Cancer screening data, Wellcome Trust Sanger Institute”.
pIC50: −log10 of the molar value.

What was measured:
Assay in all cases: cells
COLO-824 = type: functional, cell-based, Homo sapiens; settings: Homo sapiens, COLO-824
Description: SANGER: Inhibition of human COLO-824 cell growth in a cell viability assay.

COR-L88 = type: functional, cell-based, Homo sapiens; settings: Homo sapiens, COR-L88;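 also: growth inhibition of COR-L88 cells, read out with a cell viability assay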
Description: SANGER: Inhibition of human COR-L88 cell growth in a cell viability assay.

D-263MG = type: functional, cell-based, Homo sapiens; settings: Homo sapiens, D-263MG
Description: SANGER: Inhibition of human D-263MG cell growth in a cell viability assay.

D-502MG = type: functional, cell-based, Homo sapiens; settings: Homo sapiens, D-502MG
Description: SANGER: Inhibition of human D-502MG cell growth in a cell viability assay.

DJM-1 = type: functional, cell-based, Homo sapiens; settings: Homo sapiens, DJM-1;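 also: growth inhibition of human DJM-1 cells, read out by a cell viability assay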
ES6 = type: functional, cell-based; settings: Homo sapiens;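 also: growth inhibition of human ES6 cells, read out with a cell viability assay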
Description: SANGER: Inhibition of human ES6 cell growth in a cell viability assay.

ES7 = type: functional, cell-based, Homo sapiens; settings: Homo sapiens, ES7;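 also: growth inhibition of cultured human ES7 cells, read out as cell viability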
Description: SANGER: Inhibition of human ES7 cell growth in a cell viability assay.

ES8 = type: functional, cell-based, Homo sapiens; settings: Homo sapiens, ES8;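 also: growth inhibition of human ES8 cells, read out with a cell viability assay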
Description: SANGER: Inhibition of human ES8 cell growth in a cell viability assay.

EW-1 = type: functional, cell-based, Homo sapiens; settings: Homo sapiens, EW-1
Description: SANGER: Inhibition of human EW-1 cell growth in a cell viability assay.

EW-16 = type: functional, cell-based, Homo sapiens; settings: Homo sapiens, EW-16;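 also: growth inhibition of human EW-16 cells, read out as cell viability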
Description: SANGER: Inhibition of human EW-16 cell growth in a cell viability assay.

GR-ST = type: functional, cell-based, Homo sapiens; settings: Homo sapiens, GR-ST
Description: SANGER: Inhibition of human GR-ST cell growth in a cell viability assay.

HCC1187 = type: functional, cell-based, Homo sapiens; settings: Homo sapiens, HCC1187;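 also: growth inhibition of HCC1187 cells, read out with a cell viability assay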
Description: SANGER: Inhibition of human HCC1187 cell growth in a cell viability assay.

HCC2157 = type: functional, cell-based, Homo sapiens; settings: Homo sapiens, HCC2157;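 also: growth inhibition of the cancer cell line, read out as cell viability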
Description: SANGER: Inhibition of human HCC2157 cell growth in a cell viability assay.

HCE-T = type: functional, cell-based, Homo sapiens; settings: Homo sapiens, HCE-T;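 also: cell viability assay read-out, reporting inhibition of HCE-T cell growth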
Description: SANGER: Inhibition of human HCE-T cell growth in a cell viability assay.

HH = type: functional, cell-based, Homo sapiens; settings: Homo sapiens, HH
Description: SANGER: Inhibition of human HH cell growth in a cell viability assay.

K5 = type: functional, cell-based, Homo sapiens; settings: Homo sapiens, K5
Description: SANGER: Inhibition of human K5 cell growth in a cell viability assay.

KARPAS-45 = type: functional, cell-based, Homo sapiens; settings: Homo sapiens, KARPAS-45;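 also: inhibition of cell line growth, read out through a viability assay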
Description: SANGER: Inhibition of human KARPAS-45 cell growth in a cell viability assay.

LAN-6 = type: functional, cell-based, Homo sapiens; settings: Homo sapiens, LAN-6;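 also: growth inhibition of LAN-6 cells, determined with a cell viability assay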
Description: SANGER: Inhibition of human LAN-6 cell growth in a cell viability assay.

LB771-HNC = type: functional, cell-based; settings: Homo sapiens;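 also: growth inhibition of LB771-HNC human cells, read out with a cell viability assay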
Description: SANGER: Inhibition of human LB771-HNC cell growth in a cell viability assay.

LB996-RCC = type: functional, cell-based, Homo sapiens; settings: Homo sapiens, LB996-RCC
Description: SANGER: Inhibition of human LB996-RCC cell growth in a cell viability assay.

LNCaP-Clone-FGC = type: functional, cell-based, Homo sapiens; settings: Homo sapiens, LNCaP-Clone-FGC
Description: SANGER: Inhibition of human LNCaP-Clone-FGC cell growth in a cell viability assay.

LS-1034 = type: functional, cell-based, Homo sapiens; settings: Homo sapiens, LS-1034
Description: SANGER: Inhibition of human LS-1034 cell growth in a cell viability assay.

ML-2 = type: functional, cell-based, Homo sapiens; settings: Homo sapiens, ML-2;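 also: growth inhibition of ML-2 cells, measured with a cell viability readout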
Description: SANGER: Inhibition of human ML-2 cell growth in a cell viability assay.

MMAC-SF = type: functional, cell-based; settings: Homo sapiens;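 also: growth inhibition of human MMAC-SF cells, read out with a cell viability assay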
MOLT-16 = type: functional, cell-based, Homo sapiens; settings: Homo sapiens, MOLT-16;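 also: growth inhibition of human MOLT-16 cells, read out with a cell viability assay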
Description: SANGER: Inhibition of human MOLT-16 cell growth in a cell viability assay.

MZ2-MEL = type: functional, cell-based, Homo sapiens; settings: Homo sapiens, MZ2-MEL;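 also: growth inhibition of MZ2-MEL cells read out with a cell viability assay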
Description: SANGER: Inhibition of human MZ2-MEL cell growth in a cell viability assay.

NB5 = type: functional, cell-based, Homo sapiens; settings: Homo sapiens, NB5;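 also: growth inhibition of NB5 cells, read out as cell viability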
Description: SANGER: Inhibition of human NB5 cell growth in a cell viability assay.

NB69 = type: functional, cell-based, Homo sapiens; settings: Homo sapiens, NB69;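 also: growth inhibition of NB69 cells, determined by a cell viability assay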
Description: SANGER: Inhibition of human NB69 cell growth in a cell viability assay.

NCI-H1155 = type: functional, cell-based, Homo sapiens; settings: Homo sapiens, NCI-H1155;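 also: cell growth inhibition measured by a viability assay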
Description: SANGER: Inhibition of human NCI-H1155 cell growth in a cell viability assay.

NCI-H1304 = type: functional, cell-based, Homo sapiens; settings: Homo sapiens, NCI-H1304;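 also: growth inhibition of the cancer cell line, measured in a cell viability assay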
Description: SANGER: Inhibition of human NCI-H1304 cell growth in a cell viability assay.

NCI-H1581 = type: functional, cell-based, Homo sapiens; settings: Homo sapiens, NCI-H1581;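 also: cell growth inhibition read out by a viability assay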
Description: SANGER: Inhibition of human NCI-H1581 cell growth in a cell viability assay.

NCI-H1648 = type: functional, cell-based, Homo sapiens; settings: Homo sapiens, NCI-H1648;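 also: cell viability assay measuring inhibition of NCI-H1648 cell growth, from the Sanger screening data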
Description: SANGER: Inhibition of human NCI-H1648 cell growth in a cell viability assay.

NCI-H720 = type: functional, cell-based, Homo sapiens; settings: Homo sapiens, NCI-H720;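 also: growth inhibition of human NCI-H720 cells determined by a cell viability assay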
Description: SANGER: Inhibition of human NCI-H720 cell growth in a cell viability assay.

NCI-H82 = type: functional, cell-based, Homo sapiens; settings: Homo sapiens, NCI-H82;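 also: growth inhibition of NCI-H82 cells, measured with a cell viability readout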
Description: SANGER: Inhibition of human NCI-H82 cell growth in a cell viability assay.

NMC-G1 = type: functional, cell-based, Homo sapiens; settings: Homo sapiens, NMC-G1;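 also: growth inhibition of the NMC-G1 cell line, measured with a cell viability read-out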
Description: SANGER: Inhibition of human NMC-G1 cell growth in a cell viability assay.

OMC-1 = type: functional, cell-based, Homo sapiens; settings: Homo sapiens, OMC-1;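 also: growth inhibition of the OMC-1 cell line, measured by a cell viability assay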
P30-OHK = type: functional, cell-based, Homo sapiens; settings: Homo sapiens, P30-OHK;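 also: growth inhibition of the P30-OHK cell line, read out with a cell viability assay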
Description: SANGER: Inhibition of human P30-OHK cell growth in a cell viability assay.

RPMI-8226 = type: functional, cell-based, Homo sapiens; settings: Homo sapiens, RPMI-8226
Description: SANGER: Inhibition of human RPMI-8226 cell growth in a cell viability assay.

Ramos-2G6-4C10 = type: functional, cell-based, Homo sapiens; settings: Homo sapiens, Ramos-2G6-4C10;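 also: growth inhibition of the cell line, measured by a cell viability read-out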
Description: SANGER: Inhibition of human Ramos-2G6-4C10 cell growth in a cell viability assay.

SBC-1 = type: functional, cell-based, Homo sapiens; settings: Homo sapiens, SBC-1;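 also: cell viability assay measuring growth inhibition of the SBC-1 cell line, IC50 being the concentration that halves growth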
Description: SANGER: Inhibition of human SBC-1 cell growth in a cell viability assay.

SCH = type: functional, cell-based, Homo sapiens; settings: Homo sapiens, SCH;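 also: growth inhibition of human SCH cells, read out in a cell viability assay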
Description: SANGER: Inhibition of human SCH cell growth in a cell viability assay.

SF-268 = type: functional, cell-based, Homo sapiens; settings: Homo sapiens, SF-268;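 also: growth inhibition of SF-268 cells determined with a cell viability assay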
Description: SANGER: Inhibition of human SF268 cell growth in a cell viability assay.

SK-N-FI = type: functional, cell-based, Homo sapiens; settings: Homo sapiens, SK-N-FI;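 also: cell viability assay measuring growth inhibition of human SK-N-FI cells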
Description: SANGER: Inhibition of human SK-N-FI cell growth in a cell viability assay.

SK-UT-1 = type: functional, cell-based, Homo sapiens; settings: Homo sapiens, SK-UT-1;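 also: growth inhibition of SK-UT-1 cells, measured by a cell viability assay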
Description: SANGER: Inhibition of human SK-UT-1 cell growth in a cell viability assay.

SW872 = type: functional, cell-based, Homo sapiens; settings: Homo sapiens, SW872;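 also: growth inhibition of SW872 cells, read out by a viability assay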
Description: SANGER: Inhibition of human SW872 cell growth in a cell viability assay.

A388 = type: functional, cell-based; settings: Homo sapiens;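 also: growth inhibition of human A388 cells, read out with a cell viability assay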
Description: SANGER: Inhibition of human A388 cell growth in a cell viability assay.

ALL-PO = type: functional, cell-based, Homo sapiens; settings: Homo sapiens, ALL-PO;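 also: growth inhibition of ALL-PO cells, read out by a cell viability assay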
Description: SANGER: Inhibition of human ALL-PO cell growth in a cell viability assay.

TE-6 = type: functional, cell-based, Homo sapiens; settings: Homo sapiens, TE-6;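 also: growth inhibition of TE-6 cells, read out with a cell viability assay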
Description: SANGER: Inhibition of human TE-6 cell growth in a cell viability assay.

TE-9 = type: functional, cell-based, Homo sapiens; settings: Homo sapiens, TE-9;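 also: cell growth inhibition, measured with a cell viability readout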
Description: SANGER: Inhibition of human TE-9 cell growth in a cell viability assay.

CAS-1 = type: functional, cell-based, Homo sapiens; settings: Homo sapiens, CAS-1;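 also: growth inhibition of CAS-1 cells, measured with a cell viability assay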
Description: SANGER: Inhibition of human CAS-1 cell growth in a cell viability assay.

Measured: pIC50

O=S(=O)(O)c1ccc2cc(/N=N/c3cc(S(=O)(=O)O)c4cccnc4c3O)ccc2c1
< 4.80: all assays above

CCCCCCCCCCCC1=C(O)C(=O)C=C(O)C1=O [EMBELIN]
5.07: TE-9
4.92: MOLT-16 | OMC-1
5.20: MZ2-MEL
4.88: HCE-T
4.91: ML-2
5.18: ES7
4.85: ES8 | LB996-RCC
4.61: TE-6
5.06: DJM-1
4.79: SW872
4.81: KARPAS-45
4.65: NB5
5.33: SK-UT-1
5.16: NMC-G1
5.37: EW-16
5.44: ALL-PO
5.02: ES6
5.03: NCI-H1648
4.66: LNCaP-Clone-FGC
4.77: Ramos-2G6-4C10
4.54: EW-1
5.21: P30-OHK
4.55: SBC-1
4.82: CAS-1
5.17: A388
4.57: MMAC-SF
5.10: SF-268
5.24: GR-ST
4.86: RPMI-8226
< 4.49: all other assays above

COc1cc(N2CCC(N3CCN(C)CC3)CC2)ccc1Nc1ncc(Cl)c(Nc2ccccc2S(=O)(=O)C(C)C)n1 [TAE-684]
6.31: ML-2
6.61: ALL-PO
6.13: ES8
5.96: HCE-T
6.07: KARPAS-45
5.95: NCI-H1304 | TE-9
6.76: LAN-6
6.11: ES6
6.05: LB771-HNC
6.06: MOLT-16
5.87: NCI-H720
6.16: LB996-RCC
6.98: EW-16
6.56: NCI-H1648
5.70: CAS-1
5.86: GR-ST
6.08: NMC-G1 | SF-268
6.99: EW-1
5.83: HCC2157
6.50: NB69
5.80: NB5
6.20: LS-1034 | RPMI-8226
6.25: SW872
5.97: K5
5.73: HCC1187
not listed: SCH
< 5.70: all other assays above

C[C@@H](Oc1cc(-c2cnn(C3CCNCC3)c2)cnc1N)c1c(Cl)ccc(F)c1Cl [CRIZOTINIB]
5.71: MOLT-16
not listed: SCH
< 5.70: all other assays above

O=C(NCCCNc1nc(Nc2cccc(NC(=O)N3CCCC3)c2)ncc1I)c1cccs1 [BX-795]
6.07: ES8
5.35: LB996-RCC
5.54: HCC1187
6.30: P30-OHK
5.65: Ramos-2G6-4C10
5.33: HH
5.53: NB5
5.50: MOLT-16
5.30: GR-ST
5.37: EW-16
5.97: ALL-PO
5.57: NCI-H1155 | SW872
5.52: CAS-1
5.40: SF-268
5.62: D-263MG
6.08: ES7
5.64: SK-UT-1
5.94: NB69
not listed: COR-L88 | KARPAS-45 | ML-2 | NCI-H720 | SBC-1
< 5.30: all other assays above
